Test results as given in US8008251B2, “Macrocyclic inhibitors of hepatitis C virus” (Tibotec Pharmaceuticals Ltd., priority 2005, dated 2011).
Where two headings read alike, the source gives them in different places.

Legend:
[1] = rcm bond, Hoveyda-Grubbs 1st generation catalyst, 1,2-dichloroethane, 83.0 °C
[2] = tested on: HCV replicons (NS3-NS5B regions of HCV type 1b) in Huh-7 luc/neo cells; assay: HCV replicon assay (Huh-Luc, luciferase readout); type: cell-based; conditions: Hepatitis C virus, Huh-7, 72 h, three days incubation, luciferase activity
Procedure: The in vitro antiviral activity against HCV of the compounds of formula (I) was tested in a cellular HCV replicon system based on Lohmann et al. (1999) Science 285:110-113, with the further modifications described by Krieger et al. (2001), Journal of Virology 75: 4614-4624, which is further exemplified in the examples section. This model, while not a complete infection model for HCV, is widely accepted as the most robust and efficient model of autonomous HCV RNA replication currently available. […] It will be appreciated that it is important to distinguish between compounds that specifically interfere with HCV functions from those that exert cytotoxic or cytostatic effects in the HCV replicon model, and as a consequence cause a decrease in HCV RNA or linked reporter enzyme concentration. Assays are known in the field for the evaluation of cellular cytotoxicity based for example on the activity of mitochondrial enzymes using fluorogenic redox dyes such as resazurin. Furthermore, cellular counter screens exist for the evaluation of non-selective inhibition of linked reporter gene activity, such as firefly luciferase. Appropriate cell types can be equipped by stable transfection with a luciferase reporter gene whose expression is dependent on a constitutively active gene promoter, and such cells can be used as a counter-screen to eliminate non-selective inhibitors.
The compounds of formula (I) were examined for activity in the inhibition of HCV RNA replication in a cellular assay. […] The cellular assay was based on a bicistronic expression construct, as described by Lohmann et al. (1999) Science vol. 285 pp. 110-113 with modifications described by Krieger et al. (2001) Journal of Virology 75: 4614-4624, in a multi-target screening strategy. In essence, the method was as follows.
The assay utilized the stably transfected cell line Huh-7 luc/neo (hereafter referred to as Huh-Luc). This cell line harbors an RNA encoding a bicistronic expression construct comprising the wild type NS3-NS5B regions of HCV type 1b translated from an Internal Ribosome Entry Site (IRES) from encephalomyocarditis virus (EMCV), preceded by a reporter portion (FfL-luciferase), and a selectable marker portion (neo^R, neomycine phosphotransferase). […]
The replicon cells were plated in 384 well plates in the presence of the test and control compounds which were added in various concentrations. Following an incubation of three days, HCV replication was measured by assaying luciferase activity (using standard luciferase assay substrates and reagents and a Perkin Elmer ViewLux™ ultraHTS microplate imager). […] The inhibitory activity of the compound on luciferase activity was monitored on the Huh-Luc cells, enabling a dose-response curve for each test compound.

[3] = target: T1, full-length hepatitis C NS3 protease enzyme with NS4A cofactor (HCV NS3/4A protease) (Hepatitis C virus genotype 1a, UniProt P27958); assay: Enzymatic inhibition assay of HCV NS3/4A protease; type: biochemical
T1 construct: full-length hepatitis C NS3 protease enzyme
T1 sequence (P27958 1027-1657, other chains not shown): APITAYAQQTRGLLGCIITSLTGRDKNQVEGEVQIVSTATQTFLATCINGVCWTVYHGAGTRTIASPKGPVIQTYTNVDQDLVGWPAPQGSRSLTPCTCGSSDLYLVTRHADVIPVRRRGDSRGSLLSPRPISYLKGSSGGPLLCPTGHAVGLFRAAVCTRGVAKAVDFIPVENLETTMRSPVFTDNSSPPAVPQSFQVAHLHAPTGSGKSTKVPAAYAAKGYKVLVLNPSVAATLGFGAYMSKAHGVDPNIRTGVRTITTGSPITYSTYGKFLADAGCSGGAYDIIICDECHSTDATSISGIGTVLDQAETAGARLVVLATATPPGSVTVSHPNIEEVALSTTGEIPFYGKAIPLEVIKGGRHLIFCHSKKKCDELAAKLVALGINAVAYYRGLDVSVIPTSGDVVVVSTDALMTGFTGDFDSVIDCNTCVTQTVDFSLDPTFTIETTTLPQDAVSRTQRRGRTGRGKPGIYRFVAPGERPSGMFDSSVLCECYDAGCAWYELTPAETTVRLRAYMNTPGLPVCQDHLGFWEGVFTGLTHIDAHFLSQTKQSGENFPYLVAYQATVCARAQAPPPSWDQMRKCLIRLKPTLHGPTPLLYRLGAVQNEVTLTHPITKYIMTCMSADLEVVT
Procedure: [Landro, Biochemistry, 1997, 36(31): 9340-9348]. […] The solutions were stored at −20° C. between measurements.
[Liu, 1999 Analytical Biochemistry 267 331-335].

in vitro = conditions: human, Caco-2
[4] = reference compounds for permeability assay; cited from earlier work
[5] = In vitro metabolic blocking by ritonavir in human liver microsomes; type: in vitro ADME; conditions: human liver microsomes 1 mg/ml
Procedure: Different HCV NS3/4a protease inhibitors were tested in a metabolic blocking experiment using 3 μM test compound together with 10 μM ritonavir acting as booster. Test compounds and ritonavir were added to human liver microsomes (protein concentration 1 mg/ml) suspended in potassium phosphate buffer (pH=7.4), to get final reaction mixture concentrations of 3 μM test compound and 10 μM ritonavir. In the non-boosted parallel reactions, ritonavir was not added. Boiled human liver microsomes were used for blank experiments. After addition (in a 1:3 ratio) of a cofactor mixture consisting of β-nicotinamide adenine dinucleotide phosphate (β-NADP, 0.5 mg/ml, 653.2 μM), D-Glucose-6-phosphate (2 mg/ml, 7.1 mM), Glucose-6-phosphate dehydrogenase (1.5 U/ml) in 2% NaHCO3, the reaction mixture was incubated at 37° C. for 30 or 120 minutes after which the reaction was stopped by increasing the temperature to 95° C. Test compound concentrations were determined using HPLC-MS.
Values are percentages of test compound detected after the indicated incubation times as compared to the initial test compound concentration. Each value is the mean of the results of two independent experiments.

[6] = Oral pharmacokinetics in dog with and without ritonavir boosting; type: in vivo, male Beagle dogs; conditions: single oral 10 mg/kg, boosted with ritonavir (Norvir 100 mg capsule) vs non-boosted
Procedure: Oral pharmacokinetics of Compound nr. 9 in male Beagle dogs after a single dose at 10 mg/kg, using a formulation in 50% PEG400/water and the influence of “boosting” with 10 mg/kg ritonavir were investigated.
Six male Beagle dogs (body weight 8-10 kg) were randomly divided into 2 groups of 3 animals (boosted and non-boosted). No untreated or vehicle-treated control animals were included. […] Drinking water remained available throughout the experiment.
Dogs from the non-boosted group received a single oral 10 mg/kg dose of Compound nr. 9, formulated as a 5 mg/ml 50% PEG400/water. Dogs from the boosted group received a single soft capsule of Norvir® (ritonavir, 100 mg/capsule), about 30 minutes before single oral dosing with 10 mg/kg of Compound nr. 9. The drug formulations were administered by oral gavage, using a gastric tube.
A 3 ml blood sample was collected at 0.5 h 1 h, 2 h, 4 h, 6 h, 8 h and 24 hours after dosing of Compound nr. 9. Plasma concentrations were determined using HPLC-MS. Results are shown in the table 5 below, expressed as fold change in pharmacokinetic parameter of the boosted group as compared to the non-boosted group.

SMILES	EC50 [2] [µM]	Ki [3] [nM]	Papp at 120 min, 10 μM (in vitro) [×10⁻⁶ cm/s]	further results
CCOC(=O)C12CC1C=CCCCCN(C)C(=O)N1CC(OC(=O)c3ccc([N+](=O)[O-])cc3)CC1C(=O)N2 (stereo not shown)				ring closure, yield of all isomers ([1]; from C=CCCCCN(C)C(=O)N1CC(OC(=O)c2ccc([N+](=O)[O-])cc2)CC1C(=O)NC1(C(=O)OCC)CC1C=C, 1.93 mM): 74%
COc1ccc2c(O[C@@H]3C[C@H]4C(=O)N[C@]5(C(=O)NS(=O)(=O)C6CC6)C[C@H]5/C=C\CCCCNC(=O)N4C3)cc(-c3nc(C(C)C)cs3)nc2c1 [Compound 26, Cyclopropanesulphonic acid {17-[2-(4-isopropylthiazol-2-yl)-7-methoxyquinolin-4-yloxy]-2,14-dioxo-3,13,15-triaza-tricyclo[13.3.0.0^4,6]-octadec-7-ene-4-carbonyl}-amide]	0.0064	0.4	3.6	
COc1ccc2c(O[C@@H]3C[C@H]4C(=O)N[C@]5(C(=O)NS(=O)(=O)C6(C)CC6)C[C@H]5/C=C\CCCCNC(=O)N4C3)cc(-c3nc(C(C)C)cs3)nc2c1 [Compound 28, 1-Methyl-cyclopropanesulphonic acid [17-[2-(4-isopropyl-thiazol-2-yl)-7-methoxyquinolin-4-yloxy]-2,14-dioxo-3,13,15-triaza-tricyclo-[13.3.0.0^4,6]octadec-7-ene-4-carbonyl]-amide]	0.0023	0.3	8.6	
CCOC(=O)C12CC1C=CCCCCCNC(=O)N1CC(Oc3cc(-c4nc(C(C)C)cs4)nc4cc(OC)ccc34)CC1C(=O)N2 (stereo not shown)				ring closure, yield of all isomers ([1]; from C=CCCCCCNC(=O)N1CC(Oc2cc(-c3nc(C(C)C)cs3)nc3cc(OC)ccc23)CC1C(=O)NC1(C(=O)OCC)CC1C=C, 2.2 mM, 16.0 h): 57%
CCOC(=O)C12CC1C=CCCCCN(C)C(=O)N1CC(Oc3cc(-c4nc(C(C)C)cs4)nc4cc(OC)ccc34)CC1C(=O)N2 (stereo not shown)				ring closure, yield of all isomers ([1]; from C=CCCCCN(C)C(=O)N1CC(Oc2cc(-c3nc(C(C)C)cs3)nc3cc(OC)ccc23)CC1C(=O)NC1(C(=O)OCC)CC1C=C, 1.45 mM): 74%
COc1ccc2c(O[C@@H]3C[C@H]4C(=O)N[C@]5(C(=O)NS(=O)(=O)C6(C)CC6)C[C@H]5/C=C\CCCCCNC(=O)N4C3)cc(-c3nc(C(C)C)cs3)nc2c1 [Compound 33, 1-Methyl-cyclopropanesulphonic acid [18-[2-(4-isopropyl-thiazol-2-yl)-7-methoxyquinolin-4-yloxy]-2,15-dioxo-3,14,16-triaza-tricyclo-[14.3.0.0^4,6]nonadec-7-ene-4-carbonyl]-amide]	0.0036	0.3	31	
N[C@@H](Cc1ccccc1)C(=O)O [L-Phenylalanine]				% absorption in man [4]: 100%
COc1ccc2c(O[C@@H]3C[C@H]4C(=O)N[C@]5(C(=O)NS(=O)(=O)C6CC6)C[C@H]5/C=C\CCCCCNC(=O)N4C3)cc(-c3nc(C(C)C)cs3)nc2c1 [Compound 9, N-[18-[2-(4-isopropylthiazol-2-yl)-7-methoxyquinolin-4-yl-oxy]-2,15-dioxo-3,14,16-triazatricyclo[14.3.0.0^4,6]nonadec-7-ene-4-carbonyl]-(cyclopropyl)sulfonamide]	0.007	0.12	11	% Detected Compound, 30′, ritonavir ([5]; 3 μM test compound + 10 μM ritonavir, 30 min): 88%; % Detected Compound, 120′, ritonavir ([5]; 3 μM test compound + 10 μM ritonavir, 120 min): 100%; % Detected Compound, 30′, No Booster ([5]; 3 μM test compound, 30 min, no ritonavir): 44%; % Detected Compound, 120′, No Booster ([5]; 3 μM test compound, 120 min, no ritonavir): 0%; Fold increase in AUC when boosted with ritonavir [6]: 55 fold; Fold increase in Cmax when boosted with ritonavir [6]: 31 fold
